Experimental data as given in publication PMC7558282, “The Anticancer Activity for the Bumetanide-Based Analogs via Targeting the Tumor-Associated Membrane-Bound Human Carbonic Anhydrase-IX Enzyme” (Pharmaceuticals, 2020).

What was measured:
[1] = system: A-498 cells; assay: Annexin V/PI apoptotic assay in A-498; format: cell-based, human; conditions: 6 µM, 48 h; control 1.3%
Procedure: (§1) The efficient antiproliferative activity of compound 9c on the kidney carcinoma A-498 cell line (Table 2) prompted a further investigation of its mechanistic growth inhibitory action. Thus, the impact of bumetanide analog 9c at 6 µM for 48 h on cell cycle distribution and induction of apoptosis in A-498 cells was next explored. […] Analysis of apoptosis was performed to determine the mode of cell death induced by 9c in A-498 cells. Compound 9c induced both early and late apoptosis in A-498 cells at 6 µM when compared to the untreated control cells (p < 0.01 and p < 0.001, respectively) (Figure 5A). […]
Figure 5 Compound 9c potently induces apoptosis in kidney carcinoma cell line A-498 cells (Annexin V/PI FACS). (A) Effect of compound 9c in A-498 cells analyzed by flow cytometry after double staining of the cells with Annexin-V-FITC and PI. […] (B) Quantitative analysis of apoptosis. […]
(§2) A-498 Cells were seeded at a density of 1 × 10^5 cells/well in 24-well plates and treated with compound 9c (6 µM) for 48 h. […] The DNA content of cells (10,000 cells/experimental group) was analyzed by flow cytometer at 488 nm using a FACSCalibur flow cytometer (BD Biosciences, San Jose, CA, USA) and all data were recorded and analyzed using the CellQuest Software (Becton-Dickinson Biosciences, San Jose, CA, USA). […]

[2] = system: A-498 cells; assay: cell cycle analysis (PI, flow cytometry) in A-498; format: cell-based, human; conditions: 6 µM, 48 h
Procedure: as §1
Figure 4 (A) Effect of compound 9c on the cell cycle and apoptosis in kidney carcinoma cell line A-498. […] Cells were then fixed, stained with propidium iodide (PI), and analyzed by flow cytometry. […] (B) Quantitative analysis of 4N (G2/M), 2N (G0G1), > 2N (S), and < 2N (sub-G1). DNA content was determined with CellQuest software. […]
as §2

With `CCCCNc1cc(-c2n[nH]c(=S)n2-c2ccc(Br)cc2)cc(S(N)(=O)=O)c1Oc1ccccc1` [Compound 9c] the “Annexin V-staining positive cells (total apoptotic cells)” value [1] was 25.5%, the “cells in the sub-G1 phase” value ([2]; control 1.3%) was 25.5% and the “cell population at the G2/M stage” value ([2]; untreated control 10.8%) was 48.6%.
